One data set concerns SNB-19. As to the kind of experiment: Cytotoxicity against human SNB19 cells. Format: functional, cell-based.
Another data set concerns T47D. As to the kind of experiment: Cytotoxicity against human T47D cells. Format: functional, cell-based.
The next data set deals with C32. As to the kind of experiment: Cytotoxicity against human C32 cells. Format: functional, cell-based.
The next data set deals with MDA-MB-231. As to the kind of experiment: Cytotoxicity against human MDA-MB-231 cells. Format: functional, cell-based.
In data set [1] the target is Intercellular adhesion molecule 1 (Homo sapiens, UniProt P05362). The data set can be described thus: Inhibition of ICAM1 (unknown origin).
Intercellular adhesion molecule 1, sequence (P05362 whole entry): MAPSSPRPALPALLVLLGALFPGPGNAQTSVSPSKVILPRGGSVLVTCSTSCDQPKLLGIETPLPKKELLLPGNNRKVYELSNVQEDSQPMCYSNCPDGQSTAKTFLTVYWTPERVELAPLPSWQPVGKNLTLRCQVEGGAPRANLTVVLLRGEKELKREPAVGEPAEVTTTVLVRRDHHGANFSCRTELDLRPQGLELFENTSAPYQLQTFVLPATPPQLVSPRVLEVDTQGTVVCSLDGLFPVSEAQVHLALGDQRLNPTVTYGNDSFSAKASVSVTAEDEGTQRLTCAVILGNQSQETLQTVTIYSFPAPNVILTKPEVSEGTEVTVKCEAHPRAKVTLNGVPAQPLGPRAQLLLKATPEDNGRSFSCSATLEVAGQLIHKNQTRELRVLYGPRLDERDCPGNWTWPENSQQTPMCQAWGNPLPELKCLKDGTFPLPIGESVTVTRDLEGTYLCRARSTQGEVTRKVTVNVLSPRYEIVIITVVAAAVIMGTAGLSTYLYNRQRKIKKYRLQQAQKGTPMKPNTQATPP
In a further data set the test system is Escherichia coli. The data set can be described thus: Antibacterial activity against Escherichia coli. In kind it is functional.
For another data set, the system named is Bacillus subtilis. As to the kind of experiment: Antibacterial activity against Bacillus subtilis. In kind it is functional.
Another data set deals with Staphylococcus aureus. As to the kind of experiment: Antibacterial activity against Staphylococcus aureus. Format: functional.
A short description of data set [2]: Displacement of [3H]-diazepam from benzodiazepine receptor in rat brain membranes after 30 mins. In kind it is cell membranes, Membrane.
A further data set relates to MCF7. As to the kind of experiment: Cytotoxicity against human MCF7 cells. In kind it is functional, cell-based.
Another data set deals with Liver. As to the kind of experiment: Antioxidant activity in rat liver microsomal membranes assessed as inhibition of Fe(2+)/ascorbate-induced lipid peroxidation. Format: functional, microsomes, microsome.
The next data set relates to PBMC. As to the kind of experiment: Cytotoxicity in human PBMCs assessed as reduction in cel viability at 50 ug/ml. Format: cell-based.

≈ marks a conversion by molar mass, not a printed value.

With `CN(C)CCCOc1ccc2c(c1)Nc1c(c[n+](C)c3ccccc13)S2.[Cl-]`, the IC50 in the data set with SNB-19, with T47D, in the data set with C32 and with MDA-MB-231 was ≤ 3 µg/mL in each case.

`c1cnc2c(n1)Nc1cc(CN3CCCCC3)ccc1S2` came in with an IC50 in data set [1] of 0.27 to 1.4 µM. Turning to `O=[N+]([O-])c1cnc2c(c1)Sc1cccc(F)c1N2`, the “inhibition zone (IZ)” value was 7 - 12 mm with Escherichia coli, 8 - 12 mm with Bacillus subtilis and 8 - 15 mm in the data set on Staphylococcus aureus. In turn, `CN1c2ccccc2Sc2cnc(O)c(C#N)c21` registered an IC50 in [2] of 0.31 to 0.91 µM. For the compound `C[n+]1cc2c(c3ccccc31)Nc1cc(OCCN3CCCC3)ccc1S2.[Cl-]`, the IC50 in the data set on SNB-19, in the data set on T47D, with C32 and with MDA-MB-231 was ≤ 3 µg/mL each time.

For the compound `C[n+]1cc2c(c3ccccc31)Nc1ccc(N3CCNCC3)cc1S2.[Cl-]`, the IC50 with SNB-19 was in the range of 0.7 to 11.5 µg/mL; with C32 it was 0.5 to 7.5 µg/mL; in the data set on MDA-MB-231, 0.5 to 12 µg/mL. `c1cnc2c(c1)Nc1ccncc1S2`: the values for the half-maximal inhibitory concentration (IC50) with SNB-19, with C32 and in the data set on MCF7 were 0.46 µg/mL (≈ 2.29 µM), 0.46 µg/mL (≈ 2.29 µM) and 0.72 µg/mL (≈ 3.58 µM), respectively. As to `C[n+]1cc2c(c3ccccc31)Nc1cccc(O)c1S2.[Cl-]`, the MIC in the data set with Escherichia coli (Escherichia coli) came to 14 µg/mL. With `c1ccc2c(c1)Nc1nc3ccccc3cc1S2`, the IC50 in the data set on Liver was in the range of 2 to 3 µg/mL.

Turning to `c1cnc2c(n1)Nc1cc(CN3CCC3)ccc1S2`, the IC50 in data set [1] was 0.27 to 1.4 µM. Take `CN(C)CCCN1c2ccc(F)cc2Sc2cnc3ccccc3c21`: the figures for the IC50 in the data set on MCF7 and with MDA-MB-231 were 7.91 µg/mL (≈ 22.4 µM) and 7.43 µg/mL (≈ 21 µM), respectively. As for `c1ccc2nc3c(cc2c1)Sc1c(ccc2ncccc12)N3`, in the data set on Liver, the IC50 turned out to be 16 µM.

In the case of `CNS(=O)(=O)NC1CCN(Cc2ccc3c(c2)Nc2nccnc2S3)CC1`, the IC50 in data set [1] lay within 0.27 to 1.4 µM.

As to `O=[N+]([O-])c1cnc2c(c1)Sc1cccc(Cl)c1N2`, the “inhibition zone (IZ)” value in the data set with Escherichia coli is recorded as 7 - 12 mm; in the data set with Bacillus subtilis, 12 mm; in the data set on Staphylococcus aureus, 8 - 15 mm. For the compound `O=C(O)c1ccc(C2CCN(Cc3ccc4c(c3)Nc3nccnc3S4)CC2)cc1`, the IC50 in [1] was in the range of 0.42 to 1 µM. With `c1ccc2c3c(cnc2c1)Nc1cnc2ccccc2c1S3`, in the data set with Liver, the IC50 worked out at 1 µM. For `c1cc2c(cn1)Sc1ccncc1N2CCN1CCCC1`, the IC50 in the data set with Liver worked out at 125 µM. Turning to `COc1ccc2c(c1)Sc1c[n+](C)c3ccccc3c1N2.[Cl-]`, the IC50 in the data set on SNB-19 was in the range of 0.7 to 11.5 µg/mL; in the data set with C32, 0.5 to 7.5 µg/mL; in the data set on MDA-MB-231 it was 0.5 to 12 µg/mL.

`CC(=O)NC1CCN(Cc2ccc3c(c2)Nc2nccnc2S3)CC1` registered an IC50 in data set [1] of 0.27 to 1.4 µM. Same read-out and setting: the value for `CC(C)(CCC1CCN(Cc2ccc3c(c2)Nc2nccnc2S3)CC1)C(=O)O` was 0.42 to 1 µM. Same read-out and setting: the value for `NS(=O)(=O)N1CCN(Cc2ccc3c(c2)Nc2nccnc2S3)CC1` was 0.27 to 1.4 µM. `C(#CCN1c2ccncc2Sc2ccncc21)CN1CCCCC1`: in the data set with C32, the IC50 lay within 24.8 to 29.2 µg/mL (≈ 73.7 to 86.8 µM). Take `CC(CCC1CCN(Cc2ccc3c(c2)Nc2nccnc2S3)CC1)C(=O)O` (configuration not stated): the IC50 in data set [1] was in the range of 0.42 to 1 µM.

Turning to `CN1CCCCC1CCN1c2ccc(F)cc2Sc2cnc3ccccc3c21` (configuration not stated), the IC50 in the data set on MCF7 and with MDA-MB-231 was 5.92 to 6.96 µg/mL (≈ 15 to 17.7 µM) in each case. Compound `CN1CCCCC1CCN1c2ccncc2Sc2ncccc21` (configuration not stated) returned an IC50 in the data set on MCF7 of 28.4 to 32.9 µg/mL (≈ 87 to 101 µM).

With `O=S(=O)(NC1CCN(Cc2ccc3c(c2)Nc2nccnc2S3)CC1)C(F)(F)F`, in [1], the IC50 was 0.27 to 1.4 µM. Regarding `C(#CCN1c2cnccc2Sc2cccnc21)CN1CCN(c2ccccc2)CC1`, the IC50 in the data set with SNB-19 is 33.1 µg/mL (≈ 80 µM); with T47D it was 45.8 µg/mL (≈ 111 µM); with C32, 26.1 to 27.5 µg/mL (≈ 63.1 to 66.5 µM). The Activity entry in the data set with PBMC is recorded as “<= 22%”. In the case of `O=[N+]([O-])c1cnc2c(c1)Sc1cc(F)ccc1N2`, the results for the “inhibition zone (IZ)” value in the data set with Escherichia coli, in the data set on Bacillus subtilis and with Staphylococcus aureus were 7 - 12 mm, 12 mm and 8 - 15 mm, respectively. With `CCN(CC)CC#CCN1c2cnccc2Sc2cccnc21`, the IC50 in the data set on SNB-19, with T47D and in the data set with C32 was 26.1 to 27.5 µg/mL (≈ 80.4 to 84.8 µM) throughout. The Activity result in the data set with PBMC was “<= 22%”. `O=C(O)C1CCN(Cc2ccc3c(c2)Nc2nccnc2S3)CC1` gave an IC50 in data set [1] of 0.42 to 1 µM. In data set [1], `O=S(=O)(NC1CCN(Cc2ccc3c(c2)Nc2nccnc2S3)CC1)c1ccccc1` gave an IC50 of 0.27 to 1.4 µM.

With `c1cnc(N2c3ccncc3Sc3ncccc32)nc1`, in the data set on MCF7, half-maximal inhibition (IC50) was put at 0.73 µg/mL (≈ 2.61 µM). For the compound `C#CCN1c2cccc(C(F)(F)F)c2Sc2cnc3ccccc3c21`, the midpoint of inhibition in the data set with MDA-MB-231, the IC50, lay at 7.71 µg/mL (≈ 21.6 µM). On to `C[n+]1cc2c(c3ccccc31)Nc1cc(OCCN3CCOCC3)ccc1S2.[Cl-]`, for which the IC50 with SNB-19, in the data set on T47D, in the data set with C32 and in the data set on MDA-MB-231 was ≤ 3 µg/mL throughout. For `C[n+]1cc2c(c3ccccc31)Nc1c(O)cc(-c3ccccc3)cc1S2.[Cl-]`, the IC50 in the data set on SNB-19 was 0.7 to 11.5 µg/mL; in the data set with C32, 0.5 to 7.5 µg/mL; in the data set with MDA-MB-231 it was 0.5 to 12 µg/mL. As for `CN1CCN(CC#CCN2c3ccncc3Sc3ccncc32)CC1`, the half-maximal inhibitory concentration (IC50) in the data set with SNB-19 was 21.2 µg/mL (≈ 60.3 µM); in the data set with T47D, 9.6 µg/mL (≈ 27.3 µM); in the data set on C32, 24.8 to 29.2 µg/mL (≈ 70.6 to 83.1 µM). For `CC(=O)N1CCN(Cc2ccc3c(c2)Nc2nccnc2S3)CC1`, the IC50 in data set [1] lay in the range of 0.27 to 1.4 µM. For `c1ccc2nc3c(cc2c1)Sc1ccc2ccccc2c1N3`, the IC50 with Liver worked out at 2 µg/mL.

Compound `NC(=O)C1CCCN(Cc2ccc3c(c2)Nc2nccnc2S3)C1` (configuration not stated) yielded an IC50 in data set [1] of 0.27 to 1.4 µM.

(Values after ChEMBL document CHEMBL4138122, “Azaphenothiazines - promising phenothiazine derivatives. An insight into nomenclature, synthesis, structure elucidation and biological properties” (Eur J Med Chem, 2017).)
